{"source": "paper PMC11337160", "about": "“Chirality and pH Influence the Self-Assembly of Antimicrobial Lipopeptides with Diverse Nanostructures” (ACS Applied Bio Materials, 2024)", "note": "Non-standard residues stand in square brackets, D forms with d. Residues, ends and D or L forms follow the SMILES beside them. *: point of attachment. Palmitoyl = CCCCCCCCCCCCCCCC(=O)*"}
{"tested_on": "E. coli", "experiment": "not given", "details": "MIC values were reported previously; cited from earlier work", "from_the_text": "Table 1 Antimicrobial, Cytotoxic, and Selectivity Index Activities of Lipopeptides ^a | column: MIC (μg/mL) / E. coli", "units": {"MIC E. coli": "µg/mL"}}
{"smiles": "CCCCCCCCCCCCCCCC(=O)N[C@@H](Cc1ccc(O)cc1)C(=O)N[C@H](CCCCN)C(=O)N[C@H](CCCCN)C(N)=O", "note": "[P1D] (Palmitoyl-Tyr-[dK]-[dK]-NH2)", "MIC E. coli": "15.63 to 31.25"}
{"smiles": "CCCCCCCCCCCCCCCC(=O)N[C@@H](Cc1ccc(O)cc1)C(=O)N[C@@H](CCCCN)C(=O)N[C@@H](CCCCN)C(N)=O", "note": "[P1] (Palmitoyl-Tyr-Lys-Lys-NH2)", "MIC E. coli": "15.63 to 31.25"}
{"tested_on": "Salmonella enterica NCTC 5188", "experiment": "Minimum bactericidal concentration (MBC)", "type": "cell-based", "details": "5 × 10^6 CFU/mL in MHB, lipopeptide 0-1000 μg/mL, 18 h at 37 °C, 10 μL spot-inoculated onto LB agar, overnight 37 °C", "procedure": "(§1) Two Gram-negative strains (Escherichia coli K12 and Salmonella enterica NCTC 5188) and one Gram-positive strain (Staphylococcus aureus ATCC 12600) were employed to evaluate the potential bactericidal activity of tested lipopeptides. A single colony from each strain, pre-streaked onto an LB (lysogeny broth) agar plate, was inoculated into 5 mL of LB broth and incubated at 37 °C with shaking (250 rpm) for 18 h. Then, the bacterial culture was adjusted to 5 × 10^6 CFU mL^–1 mid-log phase in Mueller-Hinton broth (MHB), and aliquots were transferred to individual wells of a U-bottom 96-well microplate with increasing concentrations of lipopeptides (0–1000 μg mL^–1). Included positive and negative controls consisted of 0.97 μg mL^–1 ciprofloxacin or 1× PBS in MHB, respectively. After 18 h of incubation at 37 °C, 10 μL from each well was spot-inoculated onto LB agar and plates were further incubated at 37 °C overnight to assess the MBC which refers to the lowest concentration of an antibacterial agent required to kill bacteria (here denoted by colony growth on the plate).\n(§2) Figure 9 Determination of MBC of lipopeptides P1, P1D, P2, and P2D. 10 μL aliquots from broth microdilution plates were spot-inoculated onto LB agar plates. The MBC refers to the lowest concentration of an antibacterial agent required to completely kill bacteria shown by the lack of colony formation. […] Positive control (+) 0.97 μg mL^–1 ciprofloxacin; negative control (−) 1X PBS.", "units": {"MBC S. enterica": "µg/mL"}}
{"smiles": "CCCCCCCCCCCCCCCC(=O)N[C@@H](Cc1ccc(O)cc1)C(=O)N[C@H](CCCCN)C(=O)N[C@H](CCCCN)C(N)=O", "note": "[P1D] (Palmitoyl-Tyr-[dK]-[dK]-NH2)", "MBC S. enterica": 125}
{"smiles": "CCCCCCCCCCCCCCCC(=O)N[C@@H](Cc1ccc(O)cc1)C(=O)N[C@@H](CCCCN)C(=O)N[C@@H](CCCCN)C(N)=O", "note": "[P1] (Palmitoyl-Tyr-Lys-Lys-NH2)", "MBC S. enterica": 125}
{"tested_on": "not listed separately", "experiment": "Critical aggregation concentration (CAC) by Thioflavin T fluorescence", "type": "physicochemical", "details": "ThT fluorescence probe (5 × 10^–4 wt % ThT), aqueous solution pH 8, 25 °C, λex 440 nm, emission 487 nm, breakpoint of I/I0 versus concentration", "procedure": "For the fluorescence experiments, a Varian Cary Eclipse spectrofluorometer was used, and the samples were placed in 4 mm inner-width quartz cuvettes. For experimental settings, excitation and emission bandwidths of 2.5 nm were used. All the experiments were carried out at 25 °C. The CAC value for all the samples was determined by fluorescence experiments with Thioflavin T (ThT). ThT is well known to bind to amyloid fibrils, and can be used to determine CAC values.[44]−[46] First a stock solution (5 × 10^–4 wt %) ThT solution was prepared and using this solution, various concentrations of samples were prepared. The scan of the fluorescence spectra (λex = 440 nm) was taken from 460 to 670 nm.\nThe CAC value of the samples was calculated by plotting I/I0 versus concentration (in wt %). Here I0 is the maximum intensity for the control, i.e., ThT solution without the sample, and I signifies the maximum fluorescence intensity of ThT at a given concentration of lipopeptide.\nTo determine the CAC values of these lipopeptides, fluorescence probe assays using Thioflavin T (ThT) were performed, this dye being sensitive to the formation of β-sheet structures.[44]−[46] Emission spectra of the four lipopeptides were collected at different concentrations after excitation at 440 nm. At higher concentrations, an emission peak at 487 nm is visible. […] The lower CAC values for P2 and P2D are due to the higher hydrophobicity of tryptophan compared to tyrosine. […] However, since aggregation at the two different pH values gives rise to distinct nanostructures, this may be coincidental.", "units": {"CAC (critical aggregation concentration)": "wt %"}}
{"smiles": "CCCCCCCCCCCCCCCC(=O)N[C@@H](Cc1ccc(O)cc1)C(=O)N[C@H](CCCCN)C(=O)N[C@H](CCCCN)C(N)=O", "note": "[P1D] (Palmitoyl-Tyr-[dK]-[dK]-NH2)", "CAC (critical aggregation concentration)": "0.034 ± 0.005"}
{"smiles": "CCCCCCCCCCCCCCCC(=O)N[C@@H](Cc1ccc(O)cc1)C(=O)N[C@@H](CCCCN)C(=O)N[C@@H](CCCCN)C(N)=O", "note": "[P1] (Palmitoyl-Tyr-Lys-Lys-NH2)", "CAC (critical aggregation concentration)": "0.040 ± 0.003"}
{"tested_on": "S. enterica", "experiment": "not given", "details": "MIC values were reported previously; cited from earlier work", "from_the_text": "Table 1 Antimicrobial, Cytotoxic, and Selectivity Index Activities of Lipopeptides ^a | column: MIC (μg/mL) / S. enterica", "units": {"MIC S. enterica": "µg/mL"}}
{"smiles": "CCCCCCCCCCCCCCCC(=O)N[C@@H](Cc1ccc(O)cc1)C(=O)N[C@H](CCCCN)C(=O)N[C@H](CCCCN)C(N)=O", "note": "[P1D] (Palmitoyl-Tyr-[dK]-[dK]-NH2)", "MIC S. enterica": 31.25}
{"smiles": "CCCCCCCCCCCCCCCC(=O)N[C@@H](Cc1ccc(O)cc1)C(=O)N[C@@H](CCCCN)C(=O)N[C@@H](CCCCN)C(N)=O", "note": "[P1] (Palmitoyl-Tyr-Lys-Lys-NH2)", "MIC S. enterica": "31.25 to 62.5"}
{"tested_on": "Staphylococcus aureus ATCC 12600", "experiment": "not given", "type": "cell-based", "details": "ATCC 12600, 18 h", "procedure": "as §1, §2", "units": {"MBC S. aureus": "µg/mL"}}
{"smiles": "CCCCCCCCCCCCCCCC(=O)N[C@@H](Cc1ccc(O)cc1)C(=O)N[C@H](CCCCN)C(=O)N[C@H](CCCCN)C(N)=O", "note": "[P1D] (Palmitoyl-Tyr-[dK]-[dK]-NH2)", "MBC S. aureus": 250}
{"smiles": "CCCCCCCCCCCCCCCC(=O)N[C@@H](Cc1ccc(O)cc1)C(=O)N[C@@H](CCCCN)C(=O)N[C@@H](CCCCN)C(N)=O", "note": "[P1] (Palmitoyl-Tyr-Lys-Lys-NH2)", "MBC S. aureus": 62.5}
{"tested_on": "Escherichia coli K12", "experiment": "not given", "type": "cell-based", "details": "K12, 18 h", "procedure": "as §1, §2", "units": {"MBC E. coli": "µg/mL"}}
{"smiles": "CCCCCCCCCCCCCCCC(=O)N[C@@H](Cc1ccc(O)cc1)C(=O)N[C@H](CCCCN)C(=O)N[C@H](CCCCN)C(N)=O", "note": "[P1D] (Palmitoyl-Tyr-[dK]-[dK]-NH2)", "MBC E. coli": 62.5}
{"smiles": "CCCCCCCCCCCCCCCC(=O)N[C@@H](Cc1ccc(O)cc1)C(=O)N[C@@H](CCCCN)C(=O)N[C@@H](CCCCN)C(N)=O", "note": "[P1] (Palmitoyl-Tyr-Lys-Lys-NH2)", "MBC E. coli": 62.5}
{"tested_on": "not listed separately", "experiment": "Cryo-TEM imaging of self-assembled nanostructures", "type": "physicochemical", "details": "1 wt % aqueous solution, pH 8", "procedure": "The Cryo-TEM imaging was performed using a field emission cryo-electron microscope (JEOL JEM-3200FSC), operating at 200 kV. To take the TEM images bright field mode with a zero-loss energy filter (omega type) was used, with a slit width of 20 eV. A Gatan UltraScan 4000 CCD camera was used to record the micrographs. During the entire experiment, the sample was kept at −187 °C. An automated FEI Vitrobot device was used to blot and vitrify samples on Quantifoil 3.5:1 holey carbon copper grids with a hole size of 3.5 μm. Before taking the images, grids were first plasma cleaned using a Gatan Solarus 9500 plasma cleaner, followed by transferring to the environmental chamber of a FEI Vitrobot at room temperature and 100% humidity. For sample spotting on the grid, 3 μL of sample solution was taken and spread on the grid. It was blotted twice and then vitrified in a 1:1 mixture of liquid ethane and propane at a temperature of −180 °C. The grids with vitrified sample solution were maintained at liquid nitrogen temperature and then cryo-transferred to the microscope.\nThe self-assembled nanostructure of these lipopeptides at acidic pH was investigated at the lower pH of 4.6 in our recent paper,[43] and here we report the unexpected observation of distinct self-assembled nanostructure of these lipopeptides at a higher pH. For cryo-TEM imaging at basic pH, 1 wt % aqueous solution of lipopeptides at pH 8 were prepared, this concentration being above the measured CAC values for these lipopeptides. […] In contrast, the TEM images of all the lipopeptides at pH 4.6 show small spherical micelles with a mean diameter of 4–9 nm (as reported previously,[43] with additional images in Figure S5).", "units": {"mean diameter of nanostructure (cryo-TEM)": "nm"}}
{"smiles": "CCCCCCCCCCCCCCCC(=O)N[C@@H](Cc1ccc(O)cc1)C(=O)N[C@H](CCCCN)C(=O)N[C@H](CCCCN)C(N)=O", "note": "[P1D] (Palmitoyl-Tyr-[dK]-[dK]-NH2)", "self-assembled nanostructure (cryo-TEM)": "twisted nanotape structures of variable width"}
{"smiles": "CCCCCCCCCCCCCCCC(=O)N[C@@H](Cc1ccc(O)cc1)C(=O)N[C@@H](CCCCN)C(=O)N[C@@H](CCCCN)C(N)=O", "note": "[P1] (Palmitoyl-Tyr-Lys-Lys-NH2)", "mean diameter of nanostructure (cryo-TEM)": "11.7 ± 3.3", "self-assembled nanostructure (cryo-TEM)": "long intertwined nanofibers"}
{"tested_on": "S. aureus", "experiment": "not given", "details": "MIC values were reported previously; cited from earlier work", "from_the_text": "Table 1 Antimicrobial, Cytotoxic, and Selectivity Index Activities of Lipopeptides ^a | column: MIC (μg/mL) / S. aureus", "units": {"MIC S. aureus": "µg/mL"}}
{"smiles": "CCCCCCCCCCCCCCCC(=O)N[C@@H](Cc1ccc(O)cc1)C(=O)N[C@H](CCCCN)C(=O)N[C@H](CCCCN)C(N)=O", "note": "[P1D] (Palmitoyl-Tyr-[dK]-[dK]-NH2)", "MIC S. aureus": 31.25}
{"smiles": "CCCCCCCCCCCCCCCC(=O)N[C@@H](Cc1ccc(O)cc1)C(=O)N[C@@H](CCCCN)C(=O)N[C@@H](CCCCN)C(N)=O", "note": "[P1] (Palmitoyl-Tyr-Lys-Lys-NH2)", "MIC S. aureus": "31.25 to 62.5"}
